Test results reported in patent US7402559B2, “Composition and method of treatment for urogenital conditions” (MSH Pharma, Incorporated, priority 1999, dated 2008).

Tests used:
C. albicans [1] = test: C. albicans colony formation (CFU viability); type: cell-based, Candida albicans; conditions: for effectiveness against C. albicans compared with fluconazole / C. albicans viability: FIG. 4; for effectiveness against C. albicans compared with fluconazole: 10^−6 to 10^−4 M, same molar concentration as fluconazole; for ability of C albicans to form colonies: FIG. 3, 10^−12 to 10^−4 M, p<0.01 vs. control
Description: Clinical isolates of C. albicans were obtained from the collection of the Department of Microbiology, Ospedale Maggiore di Milano. Cultures of C. albicans were maintained on Sabouraud's agar slants and periodically transferred to Sabouraud's agar plates and incubated for 48 hours at 28° C. To prepare stationary growth-phase yeast, a colony was taken from the agar plate, transferred into 30 ml of Sabouraud-dextrose broth, and incubated for 72 hours at 32° C. Cells were centrifuged at 1000× g for ten minutes, and the pellet was washed twice with distilled water. Cells were counted and suspended in Hank's balanced salt solution (“HBSS”) to the desired concentration.
Cells were then washed in cold distilled water and diluted with HBSS to a concentration of 100 organisms/ml. One-milliliter aliquots were then dispensed on blood agar plates and incubated for 48 hours at 37° C. The organism's viability was estimated from the number of colonies formed.
[…] The effects of forskolin and ddAdo on the ability of C. albicans to form colonies were determined according to the procedures described in Example II.

C. albicans [2] = test: C. albicans germ tube formation induced by horse serum; type: cell-based, Candida albicans; conditions: 10^−6 M, 60 minutes at 37° C., germ tubes induced by horse serum
Description: C. albicans from stationary phase cultures were washed twice with distilled water and suspended in HBSS to a final concentration of 2×10^6/ml. Hyphal growth was induced by addition of 10% inactivated horse serum (GIBCO/BRL, Paisley, Great Britain) to yeast incubated for 45 minutes at 37° C. with continuous shaking. […] The percentage of filamentous cells was evaluated under a light microscope with the aid of a hemocytometer. Experiments were run in triplicate and at least 200 cells were scored. Photomicrographs were taken with a MC100 camera attached to an Axioskop Zeiss microscope.

[3] = relative to parent peptide or to the 11-13 sequence; cited from earlier work
S. aureus (ATCC 29213) = test: S. aureus colony formation (viability); type: cell-based, Staphylococcus aureus; conditions: FIG. 1; significant at peptide concentrations of 10^−12 to 10^−4 M; 2 h at 37° C.
Description: (§1) Cultures of S. aureus (ATCC 29213) were obtained from the collection of the Department of Microbiology, Ospedale Maggiore di Milano. […] Cells were then washed in cold distilled water and diluted with HBSS to a concentration of 100 organisms/ml. One-milliliter aliquots were dispensed on blood agar plates and incubated for 24 hours at 37° C. Viability of the microorganisms was estimated from the colonies formed. In another set of experiments, 500 units of urokinase, a S. aureus growth enhancer, were also incubated with the bacteria (10^5/100 ml ) for four hours at 37° C. in a shaking water bath together with the peptides.

S. aureus = test: Urokinase induced growth of S. aureus; type: cell-based, Staphylococcus aureus; conditions: FIG. 2; 10^−6 M peptide; 500 units urokinase, 4 h
Description: as §1

C. albicans [4] = test: Neutrophil killing of C. albicans; type: cell-based, human neutrophils; Candida albicans; conditions: FIG. 6; 10^−12 to 10^−4 M; p<0.01
Description: Venous blood (20 ml) from healthy volunteers was anticoagulated with heparin. Neutrophils were then isolated using dextran sedimentation and centrifugation with Ficoll-Hypaque (Sigma Chemical Co., St. Louis, Mo., USA). Erythrocytes were lysed via hypotonic shock with the resulting neutrophils representing at least 97% of the cell suspension. Cell viability, estimated by trypan blue exclusion, was greater than 98%. Neutrophils were resuspended in HBSS for the experiments. […] After incubation, the culture tubes were placed on ice to stop growth, and extracellular organisms were washed twice with centrifugation at 1000-× g at 4° C. A 2.5% sodium deoxycholate solution was added to the suspension, and the tubes were shaken for five minutes. Cold distilled water was then added to obtain a suspension of 10^6 cells/ml. Two 1/100 serial dilutions in HBSS were made to obtain a final suspension of 100 cells/ml. One-milliliter aliquots were then dispensed on blood agar plates and incubated for 48 hours at 37° C. Colony forming units were counted at the end of the incubation period with experiments running in triplicate and repeated using blood from five different donors.

C. albicans [5] = test: cAMP content in permeabilized C. albicans (enzyme immunoassay); type: cell-based, Candida albicans; conditions: FIG. 7; 10^−6 M, three minutes
Description: The reactions were stopped after three minutes by the addition of ice cold ethanol. cAMP levels were measured in duplicate using a commercial enzyme immunoassay kit (Amersham, United Kingdom) after extraction via the liquid-phase method according to the manufacturer's instructions.

HIV-1 [6] = conditions: FIG. 11; 10^−5 M
From the text: (§2) The chronically HIV-1 infected promonocytic U1 cell line is an in vitro model of latent HIV infection in monocytes. These cells carry two integrated proviral copies of HIV, and constitutive expression of HIV is very low. Viral replication, however, as measured by RNA transcription, p24 antigen, or reverse transcriptase release, can be activated with different stimuli such as TNF-α, IL-6, IL-10, PMA or crowding of cells.
(§3) Crowding was achieved by seeding U1 cells at a density of 2×10^5/ml and maintaining them in culture at 37° C. in 5% CO2 without changing media for seven days. Cultures activated with cytokines or PMA were maintained for only 48 hours. Supernatants were then removed by centrifugation and assayed for p24 antigen using commercially available ELISA kits from Cellular Products, Inc. in Buffalo, N.Y., USA. Reverse transcriptase releases were also measured using a commercially available kit, ELISA Retrosys RT assay from Innovagen, Lund, Sweden.

NF-κB = test system: NF-κB
Description: Cells were washed once with cold PBS, and twice with buffer A (10 mM Hepes pH 7.9, 1.5 mM MgCl2, 10 mM KCl, 0.5 mM PMSF and 0.5 mM DTT), centrifuged, and incubated for ten minutes on ice in buffer A plus 0.1% NP-40. Afterwards, the supernatants were removed, and the nuclear pellets were resuspended in 15 μl of buffer C (20 mM Hepes pH 7.9, 1.5 mM MgCl2, 0.42 M KCl, 0.2 mM EDTA, 25% glycerol, 0.5 mM PMSF, and 0.5 mM DTT), incubated for 15 minutes on ice, mixed, and then centrifuged. The supernatants were diluted with 75 μl of modified buffer D (20 mM Hepes, pH 7.9, 0.05 mM KCl, 0.2 mM EDTA, 20% glycerol, 0.5 mM PMSF, and 0.5 mM DTT) and stored at −80° C. […] Each oligonucleotide was annealed to its complementary strand and end-labeled with ^32P-γ-ATP using polynucleotide kinase. For the determination of specific bands, nuclear extracts were first incubated with 100 fold excess unlabeled probe for five minutes, before incubation with a labeled probe. […] The gels were dried and autoradiographed.

HIV-1 RNA = conditions: FIG. 12; PMA stimulated U1 cells
[7] = relative to L-form tripeptide alpha-MSH (11-13); cited from earlier work
HIV-1 [8] = conditions: FIG. 10; broad range of concentrations; TNF-α 10 ng/ml
From the text: as §2
Pilot experiments were first performed to determine optimal cell density, stimuli concentration, and kinetics of HIV-1 p24 antigen production using these culture conditions. Before use, cells were washed three times with HBSS to remove extracellular viruses.
as §3

For “HFRWGKPV (Ac-HFRWGKPV-NH2) [alpha-MSH (6-13)]”, the “effectiveness against C. albicans compared with fluconazole” value (“effectiveness … compared with fluconazole” below) (C. albicans [1]) was “most effective” and the “reduction in the number of filamentous cells” value (C. albicans [2]) was “approximately 50%”.

In the case of “9-13 sequence: alpha-MSH 9-13 fragment (WGKPV; Designed polypeptide with anti-inflammatory, anti-microbial, anti-fungal, and anti-viral properties.)”, the antipyretic potency [3] is given as “almost devoid of activity”.

In the case of [Nle^4, D-Phe^7]-alpha-MSH, the antipyretic potency [3] is listed as “approximately ten times more potent”.

For “Lysine-Proline-Valine [alpha-MSH (11-13)]”, the “S. aureus colony formation” value (S. aureus (ATCC 29213)) was “inhibited”, the “growth enhancing effect of urokinase on S. aureus” value (S. aureus) was “significantly countered” and the “ability of C albicans to form colonies” value (C. albicans [1]) was “greatly reduced”. The “effectiveness … compared with fluconazole” value (C. albicans [1]) was “most effective”, the “growth of C. albicans relative to the control group” value (C. albicans [1]; FIG. 8, p<0.01) was “significantly inhibited” and the “neutrophil killing of C. albicans” value (C. albicans [4]) was “enhanced”. For the same substance, the “cAMP content in C. albicans” value (C. albicans [5]) was “enhanced”, the “reverse transcriptase release from U1 cells induced by IL-6, IL-10, PMA and in crowding condition” value (HIV-1 [6]) was “inhibited” and the “NF-κB activation, TNF-α stimulated cells” value (NF-κB) was “significantly reduced”. For the same substance, the “NF-κB activation, resting cells” value (NF-κB) was “did not alter” and the “transcription of spliced and unspliced HIV-1 RNA” value (HIV-1 RNA) was “inhibited”.

For “Ac-[D-K11]-alpha-MSH 11-13-NH2 [reference compound]”, the “anti-inflammatory activity / general potency” value [7] is given as “same general potency”.

For “ACTH (1-39): adrenocorticotropic hormone (1-39) (SYSMEHFRWGKPVGKKRRPVKVYPAGEDDEASEAFPLEF; Designed polypeptide with anti-inflammatory, anti-microbial, anti-fungal, and anti-viral properties/naturally occurring peptide.; listed as Homo sapiens) [reference compound]”, the C. albicans viability (C. albicans [1]) was “did not reduce”.

In the case of “8-13 sequence: alpha-MSH 8-13 fragment (RWGKPV; Designed polypeptide with anti-inflammatory, anti-microbial, anti-fungal, and anti-viral properties.)”, the antipyretic potency [3] is given as “greater than that of the 11-13 sequence”.

In the case of SYSMEHFRWGKPV [alpha-MSH (1-13)], the “S. aureus colony formation” value (S. aureus (ATCC 29213)) is reported as “inhibited”, the “growth enhancing effect of urokinase on S. aureus” value (S. aureus) is reported as “significantly countered” and the “ability of C albicans to form colonies” value (C. albicans [1]) is reported as “greatly reduced”. For the same substance, the “effectiveness … compared with fluconazole” value (C. albicans [1]) was “most effective”, the “reduction in the number of filamentous cells” value (C. albicans [2]) was 28-32% and the “neutrophil killing of C. albicans” value (C. albicans [4]) was “enhanced”. For the same substance, the “cAMP content in C. albicans” value (C. albicans [5]) was “enhanced” and the “p24 antigen release from TNF-α stimulated U1 cells” value (HIV-1 [8]) was “significantly inhibited”.

For “10-13 sequence: alpha-MSH (11-13) with glycine added to form the 10-13 sequence (GKPV; Designed pollypeptide with anti-inflammatory, anti-microbial, anti-fungal, and anti-viral properties.)”, the antipyretic potency [3] is listed as “slightly decreased potency”.

In the case of “ACTH fragment (18-39): ACTH fragment (18-39) (CLIP) (RPVKVYPAGEDDEASEAFPLEF; Designed polypeptide with anti-inflammatory, anti-microbial, anti-fungal, and anti-viral properties.) [reference compound]”, the C. albicans viability (C. albicans [1]) is reported as “did not reduce”.

For MEHFRWG [alpha-MSH sequence (4-10)], the “anti-inflammatory activity / general potency” value [7] is given as “little antipyretic and anti-inflammatory activity”.

In the case of “dideoxyadenosine [ddAdo, reference compound]”, the “effect of ddAdo on alpha-MSH (1-13) and (11-13) inhibition of C. albicans growth” value (C. albicans [1]; FIG. 9, ddAdo 25, 50, and 100×10^−5 M for two hours, then peptides two hours) is reported as “reverse the effect”.
